Source: paper PMC7822874, “Chemoprotective antimalarials identified through quantitative high-throughput screening of Plasmodium blood and liver stage parasites” (Scientific Reports, 2021)
Where two headings read alike, the source gives them in different places.

Key:
[1] = system: P. falciparum Dd2 (clone B2) asexual blood stage parasites; experiment: P. falciparum Dd2 asexual blood stage SYBR Green-I 72 h proliferation assay (qHTS); format: cell-based, Plasmodium falciparum; conditions: averaged P. falciparum asexual blood stage potency, log10 of AC50 in M
[2] = system: P. berghei-ANKA-GFP-LucCON liver stage parasites in HepG2-A16-CD81EGFP cells; experiment: P. berghei liver stage Pb-Luc assay, Method 1 (UCSD, 1536-well); format: cell-based, Plasmodium berghei; conditions: P. berghei liver stage, averaged response (percent); for Average P. berghei 1 µM response (%): the header list (r8) defines it as the 1 µM dose
HepG2-A16-CD81EGFP cells = conditions: averaged response (percent)
in vitro = conditions: human, hepg2-a16-cd81egfp cells, % viability
[3] = HepG2, the header list (r10) describes it as the 1 µM dose

| SMILES | Pf ABS Log AC50 (M) [1] [M] | Average P. berghei 3 µM response( %) [2] [%] | Average P. berghei 1 µM response (%) [2] [%] | Average HepG2 3 µM response( %) (HepG2-A16-CD81EGFP cells; HepG2, 3 µM dose) [%] | Average HepG2 3 µM response( %) (HepG2-A16-CD81EGFP cells; [3]) [%] | viability at 3 µM (in vitro) [%] |
| --- | --- | --- | --- | --- | --- | --- |
| Cc1cc(N2CCN(C3CCCC3)CC2)n2c(nc3ccccc32)c1C#N [MLS000039270] | -6.262 | 94 | 106 | 90 | 89 | 89.8 |
| Cl.Oc1ccc(C2NCc3ccccc3-n3cccc32)cc1Cl (stereo not drawn) [MLS000047999] | -5.962 | 90 | 101 | 94 | 100 | 94 |
| N=c1c2c(n(Cc3ccc(F)cc3)c3c1CCC3)CCC2 [MLS000107591] | -5.862 | 16 | 68 | 78 | 100 | 77.7 |
| Cc1cc(Nc2ccc(C)c(C)c2)n2nc(C)nc2n1 [MLS000116616] | -5.712 | 39 | 76 | 90 | 91 | 90.3 |
| O=C(CCl)Nc1ccc(Oc2cnc3ccccc3n2)cc1 [MLS000327546] | -5.812 | 121 | 109 | 91 | 88 | 90.9 |
| Cc1ccc(NC(=O)CCS(=O)(=O)c2cc(Br)cc3c2N(C(=O)C2CC2)CC3)cc1 [NCGC00107230] | -5.625 | 118 | 117 | 102 | 99 | – |
| CCN1CCN(C(=O)c2ccc3c(c2)N(Cc2c(F)cccc2Cl)C(=O)c2ccccc2S3)CC1 [NCGC00108184] | -8.075 | 76 | 94 | 107 | 105 | – |
| CCCN(CCC)CCNC(=O)c1cc2c(-c3ccc(Cl)cc3)nn(C)c2s1 [NCGC00108997] | -6.212 | 49 | 57 | 98 | 102 | – |
| CCN1CCN(C(=O)c2ccc3c(c2)N(Cc2ccccc2F)C(=O)c2ccccc2[S+]3[O-])CC1 (stereo not drawn) [NCGC00109528] | -6.075 | 103 | 106 | 98 | 98 | – |
| Cc1ccc2oc(=O)c3cnn(CC(=O)Nc4cccc(C(F)(F)F)c4)c3c2c1 [NCGC00110933] | -5.575 | 101 | 114 | 98 | 97 | – |
| CCOCCCNc1nc2cc(OC)c(OC)cc2c2nc(-c3ccccc3)nn12 [NCGC00112857] | -6.675 | 104 | 109 | 99 | 97 | – |
| O=c1cc(-c2ccccc2)c2ccc3c(c2o1)CN(Cc1ccccc1)CO3 [NCGC00116340] | -5.575 | 76 | 87 | 100 | 102 | – |
| CC(C)OCCCNc1sc([S+](=O)([O-])c2ccccc2)nc1[S+](=O)([O-])c1ccc(Cl)cc1 [NCGC00116822] | -6.575 | 76 | 75 | 94 | 93 | – |
| Cc1cc(Nc2cccc(C(F)(F)F)c2)nc2ccc(NC(=O)c3cncc(Br)c3)cc12 [NCGC00124348] | -5.625 | 38 | 76 | 101 | 107 | – |
| Cc1ccccc1NC(=O)Nc1ccc2nc(N3CCN(C)CC3)cc(C)c2c1 [NCGC00126513] | -5.825 | 104 | 110 | 106 | 104 | – |
| CCN(C(=O)CSc1nc(-c2ccc(C(C)C)cc2)no1)c1ccccc1 [NCGC00127904] | -6.025 | 98 | 117 | 105 | 102 | – |

| SMILES | Pf ABS Log AC50 (M) [1] [M] | Average P. berghei 3 µM response( %) [2] [%] | Average P. berghei 1 µM response (%) [2] [%] | Average HepG2 3 µM response( %) (HepG2-A16-CD81EGFP cells; HepG2, 3 µM dose) [%] | Average HepG2 3 µM response( %) (HepG2-A16-CD81EGFP cells; [3]) [%] | viability at 3 µM (in vitro) [%] |
| --- | --- | --- | --- | --- | --- | --- |
| CC1CCN(C(=O)CSc2nc(-c3ccc(C(C)C)cc3)no2)CC1 [NCGC00127906] | -5.925 | 103 | 130 | 105 | 105 | – |
| CCc1cccc(-n2c(=O)c3cccnc3n2CC(=O)Nc2ccc(F)c(C)c2)c1 [NCGC00128424] | -5.575 | 91 | 110 | 103 | 107 | – |
| COc1ccc(-c2nc3sc(CCNC(=O)c4ccc(C(C)(C)C)cc4)c(C)n3n2)cc1 [NCGC00137079] | -5.675 | 84 | 132 | 98 | 98 | – |
| Cc1ccc(O)c([C@H](CCN(C(C)C)C(C)C)c2ccccc2)c1 [NCGC00159519] | -5.437 | 83 | 97 | 104 | 100 | – |
| CC(C)C(=O)OCC(=O)[C@@]12O[C@H](C3CCCCC3)O[C@@H]1C[C@H]1[C@@H]3CCC4=CC(=O)C=C[C@]4(C)[C@H]3[C@@H](O)C[C@@]12C [NCGC00167484] | -5.762 | 125 | 137 | 92 | 94 | – |
| O=C(O)c1ccc(-c2nc3cnccc3[nH]2)cc1 [NCGC00375713] | -5.264 | 94 | 106 | 104 | 105 | – |
| O=C1NCc2ccccc2CC12CCCN(Cc1ccccc1)C2 (stereo not drawn) [NCGC00377595] | -4.980 | 106 | 116 | 104 | 103 | – |
| COc1ccc2[nH]c(C[C@@H]3C[C@@H](C(C)C)[C@H](CNCc4ccccc4OC)C=C3C)nc2c1 [NCGC00392082] | -5.025 | 47 | 75 | 97 | 99 | – |
| CCC(CC)c1cc([C@H]2CN3CC[C@H]2C[C@@H]3CNC(C)=O)nc(-c2ccncc2)n1 [NCGC00394634] | -4.814 | 53 | 49 | 106 | 107 | – |
| Cn1ccc(NCc2nnc(C(=O)N3CCC[C@@H]3C(c3ccccc3)c3ccccc3)n2-c2ccccc2)n1 [NCGC00415774] | -5.875 | 89 | 95 | 99 | 96 | – |
| COc1cc2c(cc1Oc1cccc(N(C)C)c1)NC(=O)C21CCN(c2cnccn2)CC1 [NCGC00416778] | -5.825 | 43 | 96 | 89 | 98 | – |
| Cc1nn2c(c1-c1ccccc1-c1ccccc1)N(Cc1ccc(O)cc1)CCC2 [NCGC00420512] | -6.314 | 24 | 80 | 111 | 98 | – |
| COc1ccc(N2CCN(c3cc(C4CC(N)C4)nc(N)n3)CC2(C)C)cc1 (stereo not drawn) [NCGC00422579] | -5.525 | 82 | 91 | 100 | 102 | – |
| COc1ccc(-c2noc(-c3cccn3CC(=O)Nc3ccccc3)n2)cc1F [NCGC00445500] | -5.625 | 183 | 170 | 104 | 101 | – |
| O=C1CC(c2ccccc2)N(Cc2ccncc2)CCCN(C(=O)Nc2ccccc2F)CCN1 (stereo not drawn) [NCGC00467191] | -5.775 | 73 | 88 | 103 | 107 | – |
| CCOc1ccccc1CN1CCC2(CCN(CCC(C)C)CC2)Oc2ccccc21 [NCGC00478188] | -5.475 | 48 | 106 | 105 | 100 | – |
